The test system of test [1] is Bone marrow-derived dendritic cells (BMDCs). Description: Cytokine production (ELISA) by BMDCs pre-treated with TCT, then stimulated with TLR agonists. The test is classed as cell-based, BALB/c mice. Here is the method:
Bone marrow-derived dendritic cells (BMDCs) from BALB/c mice were pre-treated with TCT (10 μg/ml) for 1, 6 and 12 hours before being stimulated with a range of concentrations of the TLR2 agonist, Pam-3Csk (10, 100, 1000 ng/ml), the TLR4 agonist, B. pertussis LPS (100, 1000, 10,000 pg/ml) and the TLR9 agonist, CpG (10, 100, 1000 ng/ml) for a further 12 hours. The concentration range chosen for each TLR agonist was based on preliminary experiments. Cytokine and chemokine concentrations were evaluated by ELISA.
Background: An ELISA detects its analyte on a solid surface through an enzyme-linked reagent.

The next test relates to Bone marrow-derived DCs. The test can be described thus: Surface expression of MHC Class II and costimulatory molecules on DCs by immunofluorescence analysis. Format: cell-based, BALB/c mice. How it is done:
Bone marrow-derived DCs from BALB/c mice were cultured for 6 hours with (i) TCT (10 μg/ml) or medium alone, then stimulated with B. pertussis LPS at (ii) 10 ng/ml and (iii) 100 ng/ml for a further 12 hours and analysed for surface expression of MHC Class II and costimulatory molecules by immunofluorescence analysis with Abs specific for MHC Class II (a), CD86 (b), and ICAM-1 (c). (FIG. 5).

Test [2] has as its system KLH-specific T cell responses. Description: Footpad immunisation with KLH (PBS, alum or LPS) with or without TCT; popliteal lymph node cytokines. The test is classed as in vivo, BALB/c mice. Here is the method:
BALB/c mice were injected subcutaneously into the footpad with either PBS alone, KLH (20 μg), KLH adsorbed to alum, KLH+LPS (10 μg) or KLH+TCT (10 or 25 μg), KLH+LPS+TCT or KLH+TCT adsorbed to alum. 5 days later mice were sacrificed and the popiliteal LNs were removed. Single LN cell suspensions were cultured in the presence of increasing concentrations of KLH (2-50 μg/ml) or PMA/CD3 or medium as positive and negative controls respectively. Supernatants were taken 3 days later and tested for IFN-γ, IL-10, IL-4 and IL-5 by ELISA. Results are mean (+/−SD) values for 5 mice per group.

In test [3] the test system is Bone marrow-derived dendritic cells (BMDCs). Description: Cytokine production (ELISA) by BMDCs pre-treated with TCT, then stimulated with TLR agonists. The test is classed as cell-based, BALB/c mice. This is another data set of the same source.
The target in a further test is T1, human NOD1 (Homo sapiens, UniProt Q9Y239).
T1 sequence (Q9Y239 1-953): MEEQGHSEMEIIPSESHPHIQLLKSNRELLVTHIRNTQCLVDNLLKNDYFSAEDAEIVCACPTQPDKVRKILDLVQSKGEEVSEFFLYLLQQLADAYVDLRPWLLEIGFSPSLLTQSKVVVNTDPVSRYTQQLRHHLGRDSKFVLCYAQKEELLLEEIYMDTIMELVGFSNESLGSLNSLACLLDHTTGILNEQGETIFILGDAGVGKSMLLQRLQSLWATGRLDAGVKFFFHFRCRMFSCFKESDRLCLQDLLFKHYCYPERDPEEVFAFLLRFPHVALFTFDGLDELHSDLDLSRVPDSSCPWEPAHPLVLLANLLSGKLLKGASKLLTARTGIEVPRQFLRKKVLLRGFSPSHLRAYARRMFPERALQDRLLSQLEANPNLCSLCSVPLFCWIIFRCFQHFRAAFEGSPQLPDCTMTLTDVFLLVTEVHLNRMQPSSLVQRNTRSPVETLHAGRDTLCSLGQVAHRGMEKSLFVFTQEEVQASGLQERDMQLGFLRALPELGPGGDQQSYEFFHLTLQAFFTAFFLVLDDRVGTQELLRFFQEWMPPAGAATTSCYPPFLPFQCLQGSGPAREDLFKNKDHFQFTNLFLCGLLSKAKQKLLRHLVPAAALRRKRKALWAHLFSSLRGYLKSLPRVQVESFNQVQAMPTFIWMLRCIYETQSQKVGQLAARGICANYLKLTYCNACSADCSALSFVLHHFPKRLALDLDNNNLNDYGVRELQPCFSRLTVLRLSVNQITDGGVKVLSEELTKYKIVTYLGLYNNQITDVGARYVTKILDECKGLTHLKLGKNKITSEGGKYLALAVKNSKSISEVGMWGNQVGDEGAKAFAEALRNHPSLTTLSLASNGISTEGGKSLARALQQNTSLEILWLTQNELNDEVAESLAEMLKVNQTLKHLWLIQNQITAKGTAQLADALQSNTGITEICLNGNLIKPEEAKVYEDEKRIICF
The following applies: cited from earlier work.

Setting [4] is: TCT 10 μg/ml for 1, 6, 12 hours, Pam-3Csk 10, 100, 1000 ng/ml for 12 hours.
Where [5] appears, read: TCT 10 μg/ml pre-treatment (particularly 1 hour), Pam-3Csk, B. pertussis LPS, CpG for 12 hours.
Setting [6] is: KLH and LPS, co-administration of TCT.
The mark [7] stands for this setting: KLH in alum, TCT 10 or 25 μg/mouse.
Setting [8] is: KLH in alum, treatment with TCT.
Setting [9] is: co-administration of TCT with KLH in PBS.

Consider one molecule from patent US20090176696A1, “Methods And Compositions For Modulating An Immune Response” (priority 2006, published 2009).

As to `CC(=O)NC1C(OC2C3COC(O3)C(NC(C)=O)C2OC(C)C(=O)NC(C)C(=O)NC(CCC(=O)NC(CCCC(N)C(=O)NC(C)C(=O)O)C(=O)O)C(=O)O)OC(CO)C(O)C1O` (stereo not drawn) [TCT, N-acetylglucosaminyl-1,6-anhydro-N-acetylmuramylalanyl-γ-glutamyldiaminopimelylalanine], in test [1] (LPS 10,000 pg/ml, TCT pre-treatment 1 and 6 hours), the “IL-10 production by B. pertussis LPS” value is “significant enhancement”. The “IL-10 production in response to the TLR-9 agonist CpG” value in test [1] (TCT 10 μg/ml for 1, 6, 12 hours, CpG 10, 100, 1000 ng/ml for 12 hours) is “enhances”. Also, the “IL-6 production in response to the TLR-4 agonist B. pertussis LPS” value in test [1] (TCT 10 μg/ml for 1, 6, 12 hours, LPS 100, 1000, 10000 pg/ml for 12 hours) is reported as “enhances”. Further, in test [1] (setting [4]), the “IL-6 production in response to the TLR-2 agonist Pam-3Csk” value was “enhances” and the “IL-10 production in response to the TLR-2 agonist Pam-3Csk” value is on record as “enhances”. In addition, in test [1] (setting [5]), the “IL-6 production by all the TLR agonists examined” value is “significantly enhanced” and the “IL-10 production by all the TLR agonists examined” value was “significantly enhanced”. Besides, the “IL-12p40 production induced by LPS” value in test [1] (TCT 10 μg/ml pre-treatment, B. pertussis LPS) is given as “significantly reduced”. Moreover, the “IL-12p40 production induced by Pam-3Csk” value in test [1] (TCT 10 μg/ml pre-treatment, Pam-3Csk) is given as “significantly reduced”. In addition, the “production of cytokines and chemokines examined” value in test [1] (TCT alone (10 μg/ml), no TLR agonist) is “did not induce”. Further, in the test with Bone marrow-derived DCs (6 hours TCT pre-treatment), the “B. pertussis LPS induced expression of the other costimulatory molecules (CD86, ICAM-1)” value is “did not modulate”. Also, the “MHC Class II expression induced with B. pertussis LPS” value in the test with Bone marrow-derived DCs (LPS 10 or 100 ng/ml, 6 hours TCT pre-treatment) was “reduced”. Further, in the test with Bone marrow-derived DCs (TCT (10 μg/ml) alone), the “MHC Class II expression on DCs” value is listed as “did not influence” and the “co-stimulatory molecule expression on DCs” value is “did not influence”. In test [2] (setting [6]), the “IFN-γ production promoted with LPS” value is “not affected” and the “IL-10 production promoted with LPS” value is “not affected”. In test [2] (setting [7]), the “IL-4 response, draining lymph node cells” value is recorded as “significantly reduced” and the “IL-5 response, draining lymph node cells” value is given as “significantly reduced”. In test [2] (setting [8]), the “IFN-γ production, draining lymph node cells” value is “not significantly affected” and the “IL-10 production, draining lymph node cells” value was “not significantly affected”. For the same molecule, in test [2] (setting [9]), the IFN-γ response result is given as “enhanced” and the IL-10 response entry is reported as “enhanced”. The “IL-10 production by dendritic cells in synergy with the TLR4 agonist MPL” value in test [3] was “enhances”. In addition, at human NOD1, the “NOD1 detection of TCT” value is on record as “poorly detected”.
